Values quoted from earlier work, collected in US20010001790A1, “TOPICAL FORMULATIONS COMPRISING SKIN PENETRATION AGENTS AND THE USE THEREOF” (priority 1999, published 2001).

Settings: propylene glycol vehicle; upon addition of cetyl alcohol at 3% by weight

In the case of `CC1(C)O[C@@H]2C[C@H]3[C@@H]4CCC5=CC(=O)C=C[C@]5(C)[C@@]4(F)[C@@H](O)C[C@]3(C)[C@]2(C(=O)CO)O1` [triamcinolone acetonide], the “reduction of skin penetration of the pharmaceutically active agent” value is given as 39%.
